Molecular target: α-glucosidase
Assay: SPR (Biacore 8K, CM5 chip, immobilized enzyme); also p-NPG inhibition (IC50 […], Ki […], non-competitive, reversible) and CD
Format: binding, Saccharomyces cerevisiae

Kd: 39.1 µM
SMILES: Oc1cc(-c2ccccc2)cc(O)c1O [THB, 3,4,5-Trihydroxybiphenyl]

Reference: publication PMC12287757, “Exploring the inhibitory effect and mechanism of 3,4,5-trihydroxybiphenyl on α-glucosidase: an integrated experimental and computational approach” (Frontiers in Pharmacology, 2025)
